Values quoted from earlier work, collected in patent publication US20230022721A1, “COMPOSITIONS AND METHODS FOR INHIBITION AND INTERRUPTION OF BIOFILM FORMATION” (DENTSPLY SIRONA Inc., priority 2016, published 2023).

How the values were obtained:
[1] = test system: Fungi: C. albicans; A. niger
[2] = test system: Bacteria: S. aureus; P. aeruginosa; E. coli
[3] = test system: Bacteria: P. aeruginosa; Staphylococcus spp.
[4] = test system: Bacteria: E. coli; S. aureus; S. typhimurium
[5] = test system: Bacteria: Gram-positive bacteria; conditions: vs model compound

For Cc1cc(NS(=O)(=O)c2ccc(N3C(=O)C=CC3=O)cc2)no1, the “Comparison of Polymers with Monomer” value [1] is listed as “The homopolymer is more effective than the monomer at all concentrations.^[6]”.
In the case of C=C(C)C(=O)OCC(O)CSc1nnc(C)s1 (centres unmarked), the “Comparison of Polymers with Monomer” value [2] is given as “The homopolymer is more effective than the monomer.^[8]”.
In the case of C=CC(=O)Oc1cc(Cl)ccc1Oc1ccc(Cl)cc1Cl, the “Comparison of Polymers with Monomer” value [3] is listed as “The homopolymer and copolymers with methyl methacrylate, styrene are all less effective than the monomer.^[10]”.
In the case of C=CC(=O)Oc1ccc(Cl)c2cccnc12, the “Comparison of Polymers with Monomer” value [4] is listed as “The homopolymer and the copolymers with acrylamide are both less effective than the monomer.^[13]”.
For C=Cc1ccc(C[S+]2CCCC2)cc1, the “Comparison of Polymers with Monomer” value [5] is given as “The homopolymer is more effective than the corresponding model compound (p- ethylbenzyl tetramethylene sulforium tetrafluoroborate)”.
